Data as given in patent publication EP1363899B1, “QUINAZOLONE DERIVATIVES AS ALPHA 1A/B ADRENERGIC RECEPTOR ANTAGONISTS” (F.HOFFMANN-LA ROCHE AG, priority 2001, dated 2002).

System: hypogastric nerve stimulation-induced increases in intraurethral pressure and phenylephrine-induced increases in diastolic blood pressure
Experiment: Dog in vivo blood and intraurethral pressure assay
Conditions: anesthetized mongrel dogs, i.v. bolus, increasing doses
Method: The following describes an in vivo assay for measuring the relative effect of test compounds on hypogastric nerve stimulation-induced increases in intraurethral pressure and phenylephrine-induced increases in diastolic blood pressure in anesthetized dog.
Mongrel dogs (10 to 20 kg) were fasted for 12 to 18 hours and anesthetized with […] (35 mg/kg, i.v.). An endotracheal tube was inserted and thereafter the lungs were mechanically ventilated with room air. The right femoral vein was isolated and cannulated with two polyethylene cannulae, one for the administration of a continuous infusion of phenobarbital sodium (5 to 10 mg/kg/hr) and the other for bolus administration of test substances. The right femoral artery was isolated and cannulated to the abdominal aorta with a fluid filled polyethylene cannula connected to an external pressure transducer for monitoring diastolic aortic pressure (DAP). The bladder was exposed via a ventral midline abdominal incision and emptied of urine through a 22 gauge needle. The bladder was cannulated through a stab incision with a water filled balloon catheter connected to an external pressure transducer for monitoring prostatic intraurethral pressure (IUP). The right hypogastric nerve (HGN) was carefully isolated and attached to a Dastre's electrode for nerve stimulation. […]

## COc1cc2nc(N3CCN(C(=O)c4ccco4)CC3)nc(N)c2cc1OC [prazosin]
  inhibition of HGN stimulation-induced increases in IUP and of phenylephrine-induced increases in DAP: inhibited increases in IUP and DAP in similar fashion
